Literature values, collected in patent US11510895B2, “Compositions and formulations including cabazitaxel and human serum albumin” (Zhuhai Beihai Biotech Co., Ltd., priority 2016, dated 2022).

Key:
human serum proteins = conditions: in vitro
human serum albumin = human serum albumin (Homo sapiens, UniProt P02768); conditions: in vitro
Chain of human serum albumin (P02768 25-609): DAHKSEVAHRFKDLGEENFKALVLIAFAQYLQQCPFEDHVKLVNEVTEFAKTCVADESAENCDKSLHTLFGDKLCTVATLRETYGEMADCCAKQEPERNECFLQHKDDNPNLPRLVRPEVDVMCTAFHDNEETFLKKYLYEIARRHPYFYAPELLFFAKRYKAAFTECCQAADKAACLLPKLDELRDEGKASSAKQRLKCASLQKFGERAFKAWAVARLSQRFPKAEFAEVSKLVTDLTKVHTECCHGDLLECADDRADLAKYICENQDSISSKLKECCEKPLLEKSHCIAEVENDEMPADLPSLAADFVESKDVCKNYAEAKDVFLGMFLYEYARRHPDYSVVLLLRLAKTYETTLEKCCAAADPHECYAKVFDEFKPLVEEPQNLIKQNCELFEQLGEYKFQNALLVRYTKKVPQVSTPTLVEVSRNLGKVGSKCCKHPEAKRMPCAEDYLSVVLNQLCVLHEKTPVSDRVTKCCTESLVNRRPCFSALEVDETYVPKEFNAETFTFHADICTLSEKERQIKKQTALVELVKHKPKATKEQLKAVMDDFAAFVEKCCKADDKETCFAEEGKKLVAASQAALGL

SMILES: CO[C@H]1C(=O)[C@]2(C)[C@@H](OC)C[C@H]3OC[C@@]3(OC(C)=O)[C@H]2[C@H](OC(=O)c2ccccc2)[C@]2(O)C[C@H](OC(=O)[C@H](O)[C@@H](NC(=O)OC(C)(C)C)c3ccccc3)C(C)=C1C2(C)C [cabazitaxel]
- saturability of the binding to human serum proteins (human serum proteins): not saturable up to 50,000
- bound to human serum albumin (human serum albumin): 82%
- solubility in alcohol: soluble
- solubility in water: practically insoluble
